Results as given in ChEMBL document CHEMBL3862033 (J Med Chem, 2016).

Each compound was assayed against 5-hydroxytryptamine receptor 6 (Homo sapiens) (UniProt P50406) (assay: Displacement of [3H]LSD from human 5-HT6 receptor expressed in HEK cell membranes at 10 uM incubated for 90 mins under dark condition by microbeta scintillation counting method relative to control). Settings: HEK293.
5-hydroxytryptamine receptor 6 (Homo sapiens), sequence (P50406 whole entry): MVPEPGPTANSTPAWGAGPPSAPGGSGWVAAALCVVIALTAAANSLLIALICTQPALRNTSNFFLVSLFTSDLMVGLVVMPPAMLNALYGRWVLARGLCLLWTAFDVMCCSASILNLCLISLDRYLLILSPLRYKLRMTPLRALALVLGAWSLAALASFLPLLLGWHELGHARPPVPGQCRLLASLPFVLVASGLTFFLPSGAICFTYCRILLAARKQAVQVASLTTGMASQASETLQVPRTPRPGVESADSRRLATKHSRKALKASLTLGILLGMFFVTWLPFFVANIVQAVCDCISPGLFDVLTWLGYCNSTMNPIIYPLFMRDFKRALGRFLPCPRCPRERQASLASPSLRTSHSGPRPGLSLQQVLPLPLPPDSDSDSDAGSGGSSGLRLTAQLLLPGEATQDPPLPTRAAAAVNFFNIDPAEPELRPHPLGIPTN

Which inhibition does the source give for `Fc1ccc(C#Cc2nc(NCc3cccc(Cl)c3)c3nc[nH]c3n2)cc1F` here?
The inhibition was under 50%.

How did the inhibition turn out when `CC(=O)NCCCNC(=O)[C@@]12C[C@@H]1[C@@H](n1cnc3c(NC(C4CC4)C4CC4)nc(Cl)nc31)[C@H](O)[C@@H]2O` was run?
Its inhibition is under 50%.

Each compound was assayed against T1, Adenosine receptor A1 (Homo sapiens) (UniProt P30542) (assay: Displacement of [3H]N6-phenylisopropyladenosine from recombinant human A1AR expressed in CHO cell membranes at 10 uM after 60 mins by liquid scintillation counting method relative to control). Settings: not given.
T1 sequence (whole entry): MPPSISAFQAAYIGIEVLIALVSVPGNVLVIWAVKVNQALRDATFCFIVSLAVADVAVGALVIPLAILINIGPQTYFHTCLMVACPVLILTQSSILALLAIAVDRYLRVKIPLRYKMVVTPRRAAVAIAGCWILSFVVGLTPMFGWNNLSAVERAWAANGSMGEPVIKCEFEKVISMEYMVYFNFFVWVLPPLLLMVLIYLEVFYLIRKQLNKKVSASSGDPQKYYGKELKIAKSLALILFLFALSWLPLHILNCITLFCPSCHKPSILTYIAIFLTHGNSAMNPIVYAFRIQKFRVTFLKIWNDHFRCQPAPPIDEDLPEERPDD

For `Fc1ccc(C#Cc2nc(NCc3cccc(Cl)c3)c3nc[nH]c3n2)cc1F`, which inhibition is on record?
The inhibition was under 10%.

`CC(=O)NCCCNC(=O)[C@@]12C[C@@H]1[C@@H](n1cnc3c(NC(C4CC4)C4CC4)nc(Cl)nc31)[C@H](O)[C@@H]2O` was tested. Which inhibition did it give?
Its inhibition is 46%.

Each compound was assayed against 5-hydroxytryptamine receptor 1D (Homo sapiens) (UniProt P28221) (assay: Displacement of [3H]5-CT from human 5-HT1D receptor expressed in HEK-T cell membranes at 10 uM incubated for 90 mins under dark condition by microbeta scintillation counting method relative to control). Settings: not given.
5-hydroxytryptamine receptor 1D (Homo sapiens), sequence (P28221 whole entry): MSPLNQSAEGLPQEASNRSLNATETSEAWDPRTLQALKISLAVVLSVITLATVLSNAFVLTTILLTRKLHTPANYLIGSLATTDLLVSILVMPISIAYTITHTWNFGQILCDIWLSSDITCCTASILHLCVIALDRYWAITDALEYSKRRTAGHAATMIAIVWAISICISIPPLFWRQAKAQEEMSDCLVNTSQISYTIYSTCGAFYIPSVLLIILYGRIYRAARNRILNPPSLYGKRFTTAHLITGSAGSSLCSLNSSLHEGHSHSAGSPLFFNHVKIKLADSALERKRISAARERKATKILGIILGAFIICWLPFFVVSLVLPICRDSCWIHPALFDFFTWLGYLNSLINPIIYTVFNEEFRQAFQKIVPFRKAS

`Fc1ccc(C#Cc2nc(NCc3cccc(Cl)c3)c3nc[nH]c3n2)cc1F` was tested. Which inhibition did it give?
Its inhibition is under 50%.

Which inhibition does the source give for `CC(=O)NCCCNC(=O)[C@@]12C[C@@H]1[C@@H](n1cnc3c(NC(C4CC4)C4CC4)nc(Cl)nc31)[C@H](O)[C@@H]2O` here?
Its inhibition is under 50%.

Each compound was assayed against T2, 5-hydroxytryptamine receptor 2B (Homo sapiens, UniProt P41595) (assay: not given). Settings: HEK293, at 10 µM.
T2 sequence (P41595 whole entry): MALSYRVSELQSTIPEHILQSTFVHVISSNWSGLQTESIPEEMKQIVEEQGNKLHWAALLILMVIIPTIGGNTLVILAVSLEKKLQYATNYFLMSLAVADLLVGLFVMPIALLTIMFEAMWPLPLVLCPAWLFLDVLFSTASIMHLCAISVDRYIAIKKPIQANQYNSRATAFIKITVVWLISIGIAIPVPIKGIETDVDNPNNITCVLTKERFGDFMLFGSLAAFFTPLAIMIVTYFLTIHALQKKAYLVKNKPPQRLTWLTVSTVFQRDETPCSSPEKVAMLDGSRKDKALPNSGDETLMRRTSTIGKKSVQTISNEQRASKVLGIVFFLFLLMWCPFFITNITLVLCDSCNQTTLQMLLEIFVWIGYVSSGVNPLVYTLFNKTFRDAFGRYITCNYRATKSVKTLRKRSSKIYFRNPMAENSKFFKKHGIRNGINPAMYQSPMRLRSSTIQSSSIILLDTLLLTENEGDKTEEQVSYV

`Fc1ccc(C#Cc2nc(NCc3cccc(Cl)c3)c3nc[nH]c3n2)cc1F` was tested. Which inhibition did it give?
Its inhibition is over 50%.

How did the inhibition turn out when `CC(=O)NCCCNC(=O)[C@@]12C[C@@H]1[C@@H](n1cnc3c(NC(C4CC4)C4CC4)nc(Cl)nc31)[C@H](O)[C@@H]2O` was run?
The inhibition was over 50%.

The compounds below were run against 5-hydroxytryptamine receptor 5A (Homo sapiens) (UniProt P47898) (assay: Displacement of [3H]LSD from human 5-HT5A receptor expressed in Flp-In-CHO cell membranes incubated for 90 mins under dark condition by microbeta scintillation counting method relative to control). Settings: not given.
5-hydroxytryptamine receptor 5A (Homo sapiens), sequence (P47898 whole entry): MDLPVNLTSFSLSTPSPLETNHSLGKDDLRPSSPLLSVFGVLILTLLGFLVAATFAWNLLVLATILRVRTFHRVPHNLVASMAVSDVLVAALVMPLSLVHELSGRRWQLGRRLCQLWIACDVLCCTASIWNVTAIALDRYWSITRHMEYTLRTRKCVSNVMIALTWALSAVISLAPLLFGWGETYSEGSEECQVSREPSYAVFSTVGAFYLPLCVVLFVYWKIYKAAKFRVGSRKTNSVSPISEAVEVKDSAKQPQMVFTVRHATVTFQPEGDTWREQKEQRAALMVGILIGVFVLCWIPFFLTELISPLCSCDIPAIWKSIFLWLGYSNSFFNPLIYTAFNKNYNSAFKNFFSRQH
Set-up: concentration or dose not given beside the values

Which inhibition does the source give for `Fc1ccc(C#Cc2nc(NCc3cccc(Cl)c3)c3nc[nH]c3n2)cc1F` here?
The inhibition was under 50%.

How did the inhibition turn out when `CC(=O)NCCCNC(=O)[C@@]12C[C@@H]1[C@@H](n1cnc3c(NC(C4CC4)C4CC4)nc(Cl)nc31)[C@H](O)[C@@H]2O` was run?
The inhibition was under 50%.

These compounds were tested against T2, 5-hydroxytryptamine receptor 2B (assay: biochemical). Settings: not given.
Type: cell-based, HEK293

How did the Ki turn out when `CC(=O)NCCCNC(=O)[C@@]12C[C@@H]1[C@@H](n1cnc3c(NC(C4CC4)C4CC4)nc(Cl)nc31)[C@H](O)[C@@H]2O` was run?
Its Ki is 534 nM.

What follows are compounds tested against T3, 5-hydroxytryptamine receptor 2A (Homo sapiens, UniProt P28223) (assay: Displacement of [3H]ketanserin from human 5-HT2A receptor expressed in HEK-T cell membranes at 10 uM incubated for 90 mins under dark condition by microbeta scintillation counting method relative to control). Settings: not given.
T3 sequence (P28223 whole entry): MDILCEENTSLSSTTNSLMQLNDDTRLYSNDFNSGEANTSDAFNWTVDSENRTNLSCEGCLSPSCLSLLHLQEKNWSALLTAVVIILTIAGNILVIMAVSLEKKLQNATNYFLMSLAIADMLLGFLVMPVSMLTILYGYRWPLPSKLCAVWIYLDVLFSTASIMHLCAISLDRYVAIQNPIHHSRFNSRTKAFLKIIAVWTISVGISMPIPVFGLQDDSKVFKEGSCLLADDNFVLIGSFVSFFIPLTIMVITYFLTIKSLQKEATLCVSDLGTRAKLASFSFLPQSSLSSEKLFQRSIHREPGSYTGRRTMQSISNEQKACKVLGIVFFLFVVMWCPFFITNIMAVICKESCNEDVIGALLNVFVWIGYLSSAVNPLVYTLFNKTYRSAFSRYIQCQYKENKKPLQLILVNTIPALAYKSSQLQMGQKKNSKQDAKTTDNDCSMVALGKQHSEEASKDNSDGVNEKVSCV

For `Fc1ccc(C#Cc2nc(NCc3cccc(Cl)c3)c3nc[nH]c3n2)cc1F`, which inhibition is on record?
The inhibition was under 10%.

Which inhibition does the source give for `CC(=O)NCCCNC(=O)[C@@]12C[C@@H]1[C@@H](n1cnc3c(NC(C4CC4)C4CC4)nc(Cl)nc31)[C@H](O)[C@@H]2O` here?
The inhibition was under 10%.

The compounds below were run against T3, 5-hydroxytryptamine receptor 2A (assay: Displacement of [3H]ketanserin from human 5-HT2A receptor expressed in HEK-T cell membranes incubated for 90 mins under dark condition by microbeta scintillation counting method). Settings: not given.

`Fc1ccc(C#Cc2nc(NCc3cccc(Cl)c3)c3nc[nH]c3n2)cc1F` was tested. Which Ki did it give?
The Ki was over 10000 nM.

With `CC(=O)NCCCNC(=O)[C@@]12C[C@@H]1[C@@H](n1cnc3c(NC(C4CC4)C4CC4)nc(Cl)nc31)[C@H](O)[C@@H]2O` as the compound, how does the Ki read?
Its Ki is over 10000 nM.

What follows are compounds tested against 5-hydroxytryptamine receptor 1B (Homo sapiens) (UniProt P28222) (assay: Displacement of [3H]5-CT from human 5-HT1BR expressed in HEK cell membranes at 10 uM incubated for 90 mins under dark condition by microbeta scintillation counting method relative to control). Settings: HEK293.
5-hydroxytryptamine receptor 1B (Homo sapiens), sequence (P28222 whole entry): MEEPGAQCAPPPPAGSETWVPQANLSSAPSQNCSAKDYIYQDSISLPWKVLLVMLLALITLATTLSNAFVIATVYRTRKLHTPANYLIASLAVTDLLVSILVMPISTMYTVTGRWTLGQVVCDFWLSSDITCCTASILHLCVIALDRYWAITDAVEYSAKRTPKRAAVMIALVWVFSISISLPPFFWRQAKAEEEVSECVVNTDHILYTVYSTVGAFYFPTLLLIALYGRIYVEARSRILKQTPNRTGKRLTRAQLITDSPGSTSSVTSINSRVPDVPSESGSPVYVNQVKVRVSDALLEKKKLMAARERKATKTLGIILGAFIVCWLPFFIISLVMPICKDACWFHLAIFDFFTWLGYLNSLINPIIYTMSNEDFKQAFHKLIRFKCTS

For `Fc1ccc(C#Cc2nc(NCc3cccc(Cl)c3)c3nc[nH]c3n2)cc1F`, which inhibition is on record?
The inhibition was under 50%.

`CC(=O)NCCCNC(=O)[C@@]12C[C@@H]1[C@@H](n1cnc3c(NC(C4CC4)C4CC4)nc(Cl)nc31)[C@H](O)[C@@H]2O` was tested. Which inhibition did it give?
Its inhibition is under 50%.

The compounds below were run against 5-hydroxytryptamine receptor 1E (Homo sapiens) (UniProt P28566) (assay: Displacement of [3H]5-HT from human 5-HT1E receptor expressed in HEK cell membranes at 10 uM incubated for 90 mins under dark condition by microbeta scintillation counting method relative to control). Settings: HEK293.
5-hydroxytryptamine receptor 1E (Homo sapiens), sequence (P28566 whole entry): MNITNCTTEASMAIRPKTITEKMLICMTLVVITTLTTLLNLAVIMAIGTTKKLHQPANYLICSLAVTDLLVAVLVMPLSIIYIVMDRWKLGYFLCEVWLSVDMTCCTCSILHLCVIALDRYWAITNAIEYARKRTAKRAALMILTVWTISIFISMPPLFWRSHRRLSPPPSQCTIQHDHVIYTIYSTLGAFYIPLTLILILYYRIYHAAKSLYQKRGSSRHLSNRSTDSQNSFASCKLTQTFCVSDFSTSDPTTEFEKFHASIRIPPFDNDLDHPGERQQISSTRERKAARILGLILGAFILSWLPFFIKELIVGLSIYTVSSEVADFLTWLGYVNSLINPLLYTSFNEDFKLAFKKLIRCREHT

Which inhibition does the source give for `Fc1ccc(C#Cc2nc(NCc3cccc(Cl)c3)c3nc[nH]c3n2)cc1F` here?
Its inhibition is under 50%.

How did the inhibition turn out when `CC(=O)NCCCNC(=O)[C@@]12C[C@@H]1[C@@H](n1cnc3c(NC(C4CC4)C4CC4)nc(Cl)nc31)[C@H](O)[C@@H]2O` was run?
Its inhibition is under 50%.

Each compound was assayed against 5-hydroxytryptamine receptor 7 (Homo sapiens) (UniProt P34969) (assay: Displacement of [3H]LSD from human 5-HT7A receptor expressed in HEK cell membranes at 10 uM incubated for 90 mins under dark condition by microbeta scintillation counting method relative to control). Settings: HEK293.
5-hydroxytryptamine receptor 7 (Homo sapiens), sequence (P34969 whole entry): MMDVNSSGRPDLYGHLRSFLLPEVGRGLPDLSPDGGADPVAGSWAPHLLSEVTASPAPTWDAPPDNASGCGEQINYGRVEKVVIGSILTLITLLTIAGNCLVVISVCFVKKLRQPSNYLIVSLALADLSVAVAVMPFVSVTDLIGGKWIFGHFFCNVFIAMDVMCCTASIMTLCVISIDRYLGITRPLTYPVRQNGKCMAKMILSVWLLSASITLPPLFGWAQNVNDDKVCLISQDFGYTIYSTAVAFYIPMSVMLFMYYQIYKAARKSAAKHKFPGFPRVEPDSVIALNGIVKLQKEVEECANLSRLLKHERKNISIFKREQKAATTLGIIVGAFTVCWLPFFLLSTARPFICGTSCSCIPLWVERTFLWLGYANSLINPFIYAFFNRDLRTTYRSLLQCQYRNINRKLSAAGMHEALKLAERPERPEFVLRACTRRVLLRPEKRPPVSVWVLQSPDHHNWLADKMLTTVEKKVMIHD

For `Fc1ccc(C#Cc2nc(NCc3cccc(Cl)c3)c3nc[nH]c3n2)cc1F`, which inhibition is on record?
Its inhibition is under 50%.

With `CC(=O)NCCCNC(=O)[C@@]12C[C@@H]1[C@@H](n1cnc3c(NC(C4CC4)C4CC4)nc(Cl)nc31)[C@H](O)[C@@H]2O` as the compound, how does the inhibition read?
Its inhibition is under 50%.

The compounds below were run against T4, 5-hydroxytryptamine receptor 2C (Homo sapiens) (UniProt P28335) (assay: Displacement of [3H]mesulergine from human 5-HT2CR expressed in Flp-In HEK cell membranes at 10 uM incubated for 90 mins under dark condition by microbeta scintillation counting method relative to control). Settings: HEK293.
T4 sequence (whole entry): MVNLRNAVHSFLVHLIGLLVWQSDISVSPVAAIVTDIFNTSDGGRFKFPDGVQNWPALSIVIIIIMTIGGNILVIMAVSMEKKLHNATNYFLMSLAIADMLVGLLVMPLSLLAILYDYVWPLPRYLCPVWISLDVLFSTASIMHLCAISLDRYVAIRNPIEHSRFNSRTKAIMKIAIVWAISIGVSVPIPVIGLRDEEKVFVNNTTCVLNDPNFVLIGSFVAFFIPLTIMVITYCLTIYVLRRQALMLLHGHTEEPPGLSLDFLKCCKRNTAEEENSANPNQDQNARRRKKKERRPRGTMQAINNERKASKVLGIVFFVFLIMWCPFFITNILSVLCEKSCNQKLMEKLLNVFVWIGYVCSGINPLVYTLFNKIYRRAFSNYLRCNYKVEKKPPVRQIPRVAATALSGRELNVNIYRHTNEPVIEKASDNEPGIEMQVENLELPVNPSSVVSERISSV

For `Fc1ccc(C#Cc2nc(NCc3cccc(Cl)c3)c3nc[nH]c3n2)cc1F`, which inhibition is on record?
Its inhibition is 11%.

Which inhibition does the source give for `CC(=O)NCCCNC(=O)[C@@]12C[C@@H]1[C@@H](n1cnc3c(NC(C4CC4)C4CC4)nc(Cl)nc31)[C@H](O)[C@@H]2O` here?
Its inhibition is over 50%.

What follows are compounds tested against T5, 5-hydroxytryptamine receptor 3A (Homo sapiens) (UniProt P46098) (assay: Displacement of [3H]GR65630 from human 5-HT3 receptor expressed in HEK-T cell membranes at 10 uM incubated for 90 mins under dark condition by microbeta scintillation counting method relative to control). Settings: not given.
T5 sequence (whole entry): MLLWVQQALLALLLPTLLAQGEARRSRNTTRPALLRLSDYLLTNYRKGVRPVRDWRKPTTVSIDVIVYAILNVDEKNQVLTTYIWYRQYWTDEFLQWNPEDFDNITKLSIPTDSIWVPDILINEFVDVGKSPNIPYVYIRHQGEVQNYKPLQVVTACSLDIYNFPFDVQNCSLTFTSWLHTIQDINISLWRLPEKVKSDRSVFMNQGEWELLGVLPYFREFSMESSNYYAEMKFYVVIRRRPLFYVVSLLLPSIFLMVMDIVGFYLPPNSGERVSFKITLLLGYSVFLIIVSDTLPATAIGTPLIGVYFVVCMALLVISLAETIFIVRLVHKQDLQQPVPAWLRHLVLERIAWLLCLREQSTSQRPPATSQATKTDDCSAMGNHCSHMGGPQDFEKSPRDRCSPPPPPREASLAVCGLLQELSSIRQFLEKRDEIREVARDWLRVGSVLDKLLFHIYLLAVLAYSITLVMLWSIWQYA

With `Fc1ccc(C#Cc2nc(NCc3cccc(Cl)c3)c3nc[nH]c3n2)cc1F` as the compound, how does the inhibition read?
The inhibition was under 50%.

`CC(=O)NCCCNC(=O)[C@@]12C[C@@H]1[C@@H](n1cnc3c(NC(C4CC4)C4CC4)nc(Cl)nc31)[C@H](O)[C@@H]2O` was tested. Which inhibition did it give?
The inhibition was under 50%.

Each compound was assayed against T6, 5-hydroxytryptamine receptor 1A (Homo sapiens) (UniProt P08908) (assay: Displacement of [3H]WAY100635 from human 5-HT1AR expressed in CHO cell membranes at 10 uM incubated for 90 mins under dark condition by microbeta scintillation counting method relative to control). Settings: not given.
T6 sequence (whole entry): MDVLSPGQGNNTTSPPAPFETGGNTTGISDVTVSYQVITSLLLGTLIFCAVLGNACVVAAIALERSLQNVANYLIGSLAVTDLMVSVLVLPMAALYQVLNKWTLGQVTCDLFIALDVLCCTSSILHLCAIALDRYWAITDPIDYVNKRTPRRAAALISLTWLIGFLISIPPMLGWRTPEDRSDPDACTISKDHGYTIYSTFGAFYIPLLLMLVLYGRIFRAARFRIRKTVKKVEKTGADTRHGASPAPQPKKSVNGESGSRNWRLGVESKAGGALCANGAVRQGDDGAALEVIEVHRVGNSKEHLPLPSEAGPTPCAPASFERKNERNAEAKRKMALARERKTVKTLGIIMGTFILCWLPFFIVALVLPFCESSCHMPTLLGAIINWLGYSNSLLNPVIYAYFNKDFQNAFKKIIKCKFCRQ

Which inhibition does the source give for `Fc1ccc(C#Cc2nc(NCc3cccc(Cl)c3)c3nc[nH]c3n2)cc1F` here?
The inhibition was under 50%.

How did the inhibition turn out when `CC(=O)NCCCNC(=O)[C@@]12C[C@@H]1[C@@H](n1cnc3c(NC(C4CC4)C4CC4)nc(Cl)nc31)[C@H](O)[C@@H]2O` was run?
The inhibition was under 50%.

Each compound was assayed against Adenosine receptor A2a (Homo sapiens, UniProt P29274) (assay: Displacement of [3 H]2-[p-(2-carboxyethyl)phenyl-ethylamino]-5'-N-ethylcarboxamidoadenosine from recombinant human adenosine receptor A2A expressed in HEK293 cell membranes at 10 uM after 60 mins by liquid scintillation counting method relative to control). Settings: not given.
Adenosine receptor A2a, sequence (P29274 whole entry): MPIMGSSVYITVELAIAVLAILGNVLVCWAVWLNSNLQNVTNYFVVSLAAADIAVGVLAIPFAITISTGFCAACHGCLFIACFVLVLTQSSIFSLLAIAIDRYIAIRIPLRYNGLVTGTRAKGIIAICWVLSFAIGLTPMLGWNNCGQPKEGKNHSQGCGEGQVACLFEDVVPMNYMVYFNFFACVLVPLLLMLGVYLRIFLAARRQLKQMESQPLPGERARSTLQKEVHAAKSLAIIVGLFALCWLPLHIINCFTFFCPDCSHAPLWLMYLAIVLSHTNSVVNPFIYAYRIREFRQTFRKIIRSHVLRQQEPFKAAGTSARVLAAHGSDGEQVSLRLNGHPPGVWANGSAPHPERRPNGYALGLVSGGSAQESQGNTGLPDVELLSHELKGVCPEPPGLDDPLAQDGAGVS

For `Fc1ccc(C#Cc2nc(NCc3cccc(Cl)c3)c3nc[nH]c3n2)cc1F`, which inhibition is on record?
Its inhibition is under 10%.

How did the inhibition turn out when `CC(=O)NCCCNC(=O)[C@@]12C[C@@H]1[C@@H](n1cnc3c(NC(C4CC4)C4CC4)nc(Cl)nc31)[C@H](O)[C@@H]2O` was run?
The inhibition was 26%.

The compounds below were run against 5-hydroxytryptamine receptor 4 (Homo sapiens) (UniProt Q13639) (assay: Displacement of [3H]GR113808 from human 5-HT4 receptor at 10 uM incubated for 90 mins under dark condition by microbeta scintillation counting method relative to control). Settings: not given.
5-hydroxytryptamine receptor 4 (Homo sapiens), sequence (Q13639 whole entry): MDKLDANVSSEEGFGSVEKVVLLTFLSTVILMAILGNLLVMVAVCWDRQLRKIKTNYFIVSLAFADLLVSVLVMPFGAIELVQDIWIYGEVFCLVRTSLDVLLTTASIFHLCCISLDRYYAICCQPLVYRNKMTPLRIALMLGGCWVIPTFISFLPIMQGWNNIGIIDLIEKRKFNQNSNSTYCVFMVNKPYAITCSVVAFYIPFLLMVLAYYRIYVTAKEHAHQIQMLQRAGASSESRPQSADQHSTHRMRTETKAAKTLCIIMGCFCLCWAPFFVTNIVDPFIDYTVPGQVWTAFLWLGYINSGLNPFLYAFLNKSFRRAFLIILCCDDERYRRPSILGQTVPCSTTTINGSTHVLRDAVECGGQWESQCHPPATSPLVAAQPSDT

With `Fc1ccc(C#Cc2nc(NCc3cccc(Cl)c3)c3nc[nH]c3n2)cc1F` as the compound, how does the inhibition read?
Its inhibition is under 50%.

Which inhibition does the source give for `CC(=O)NCCCNC(=O)[C@@]12C[C@@H]1[C@@H](n1cnc3c(NC(C4CC4)C4CC4)nc(Cl)nc31)[C@H](O)[C@@H]2O` here?
The inhibition was under 50%.

The compounds below were run against T7, 5-hydroxytryptamine receptor 2C (Homo sapiens, UniProt P28335) (assay: Displacement of [3H]mesulergine from human 5-HT2CR expressed in Flp-In HEK cell membranes incubated for 90 mins under dark condition by microbeta scintillation counting method). Settings: not given.
T7 sequence (P28335 whole entry): T4 sequence (whole entry)
Set-up: species or system HEK293

With `CC(=O)NCCCNC(=O)[C@@]12C[C@@H]1[C@@H](n1cnc3c(NC(C4CC4)C4CC4)nc(Cl)nc31)[C@H](O)[C@@H]2O` as the compound, how does the Ki read?
The Ki was 2310 nM.
